Values after ≈ are worked out from the molar mass of the structure shown.
What was measured:
B. subtilis = assay: Antibacterial activity (cell growth, MIC); assay type: cell-based; conditions: Bacillus subtilis, read-out: MIC
Protocol: (§1) FIG. 5 Inhibition of B. subtilis (A) and E. coli (B) cell growth by inhibitor 2. An overnight culture was diluted 1000-fold into 2 mL of fresh LB medium containing the specified concentrations of inhibitor 2 and incubated at 37° C. Cell densities were measured at the specified times on a UV-vis spectrophotometer.
(§2) The in vitro antibacterial activity of the cyclic inhibitor was tested against E. coli and Bacillus subtilis, the representative Gram-negative and Gram-positive bacteria, respectively.
(§3) Antimicrobial Susceptibility Testing. For Escherichia coli and Bacillus subtilis, cell growth was monitored on the Lambda-20 UV/Vis spectrophotometer at 600 nm. A single bacterial colony from a plate culture was grown overnight in LB media and was diluted 1000-fold into 2 mL of fresh growth medium containing 0-64 μg/mL of test agent in a 5-mL glass test tube shaken at a speed of 250 rpm. Cell growth (at 37° C.) was monitored for 0-600 min.
(§4) Antibacterial Activity of PDF Inhibitors Inhibitors 2-7E were tested against two or more bacterial strains for antibacterial activities.

E. coli = assay: Antibacterial activity (cell growth, MIC); assay type: cell-based; conditions: Escherichia coli
Protocol: as §1, §2, §3, §4

MMP-9 = MMP-9 (Homo sapiens, UniProt P14780); assay: Inhibition of human matrix metalloproteases; assay type: biochemical; conditions: read-out: percentage of MMP-9 activity remaining; for remaining activity at 1 µM: inhibitor 1.0 μM; for remaining activity at 10 µM: inhibitor 10 μM
Protocol: (§5) Inhibition of Metalloproteases (MMP) Several of the inhibitors were tested for inhibition of human matrix metalloproteases, which are often used as indicators of inhibitor selectivity (no inhibition of MMP is desired). Each inhibitor was tested at two different concentrations (1.0 and 10 μM). The values reported are the percentage of MMP activity remaining in the presence of added inhibitor.

MMP2 = molecular target: T1, MMP2 (Homo sapiens, UniProt P08253); assay: Inhibition of human matrix metalloproteases; assay type: biochemical; conditions: read-out: percentage of MMP2 activity remaining; for remaining activity at 1 µM: inhibitor 1.0 μM; for remaining activity at 10 µM: inhibitor 10 μM
T1 sequence (P08253 110-660): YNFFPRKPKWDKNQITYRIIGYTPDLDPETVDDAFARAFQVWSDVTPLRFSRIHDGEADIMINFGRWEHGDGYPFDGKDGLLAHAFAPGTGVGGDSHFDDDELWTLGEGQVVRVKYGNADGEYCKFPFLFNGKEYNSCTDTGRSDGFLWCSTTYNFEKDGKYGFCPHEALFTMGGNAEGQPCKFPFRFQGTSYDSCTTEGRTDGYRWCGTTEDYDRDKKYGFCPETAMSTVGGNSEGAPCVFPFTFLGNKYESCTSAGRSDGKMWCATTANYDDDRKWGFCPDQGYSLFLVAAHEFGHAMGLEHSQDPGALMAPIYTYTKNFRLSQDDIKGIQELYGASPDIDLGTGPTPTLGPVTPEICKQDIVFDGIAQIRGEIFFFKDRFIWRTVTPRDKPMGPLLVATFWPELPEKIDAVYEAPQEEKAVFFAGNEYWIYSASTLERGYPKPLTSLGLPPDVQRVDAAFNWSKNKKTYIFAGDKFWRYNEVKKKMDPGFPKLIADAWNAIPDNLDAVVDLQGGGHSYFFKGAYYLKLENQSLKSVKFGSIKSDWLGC
Protocol: as §5

MMP-1 = molecular target: T2, MMP-1 (Homo sapiens, UniProt P03956); assay: Inhibition of human matrix metalloproteases; assay type: biochemical; conditions: read-out: percentage of MMP-1 activity remaining; for remaining activity at 1 µM: inhibitor 1.0 μM; for remaining activity at 10 µM: inhibitor 10 μM
T2 sequence (P03956 100-469): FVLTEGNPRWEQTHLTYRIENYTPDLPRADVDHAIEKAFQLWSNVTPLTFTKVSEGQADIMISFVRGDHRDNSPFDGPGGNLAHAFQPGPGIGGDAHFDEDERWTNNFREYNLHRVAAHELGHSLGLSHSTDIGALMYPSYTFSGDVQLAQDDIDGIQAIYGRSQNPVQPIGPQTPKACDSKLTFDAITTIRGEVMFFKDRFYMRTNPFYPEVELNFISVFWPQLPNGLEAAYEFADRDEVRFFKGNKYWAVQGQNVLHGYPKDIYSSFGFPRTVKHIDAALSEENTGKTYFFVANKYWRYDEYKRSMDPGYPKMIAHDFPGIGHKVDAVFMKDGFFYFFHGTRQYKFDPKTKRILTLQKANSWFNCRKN
Protocol: as §5

MMP-3 = MMP-3 (Homo sapiens, UniProt P08254); assay: Inhibition of human matrix metalloproteases; assay type: biochemical; conditions: read-out: percentage of MMP-3 activity remaining; for remaining activity at 1 µM: inhibitor 1.0 μM; for remaining activity at 10 µM: inhibitor 10 μM
Protocol: as §5

[1] = test system: S. pneumoniae (ATCC 6301); assay: Antibacterial activity (MIC); assay type: cell-based; conditions: Streptococcus pneumoniae, ATCC6301
Protocol: as §4

[2] = test system: S. pneumoniae (ATCC 49619); assay: Antibacterial activity (MIC); assay type: cell-based; conditions: Streptococcus pneumoniae, ATCC49619
Protocol: as §4

[3] = test system: M. catarrhalis (ATCC 37054); assay: Antibacterial activity (MIC); assay type: cell-based; conditions: Moraxella catarrhalis, ATCC37054
Protocol: as §4

E. faecalis (ATCC 29212) = assay: Antibacterial activity (MIC); assay type: cell-based; conditions: Enterococcus faecalis, ATCC29212
Protocol: as §4

[4] = test system: S. pneumoniae (ATCC 6303); assay: Antibacterial activity (MIC); assay type: cell-based; conditions: Streptococcus pneumoniae, ATCC6303
Protocol: as §4

[5] = test system: H. influenzae (ATCC 31517); assay: Antibacterial activity (MIC); assay type: cell-based; conditions: Haemophilus influenzae, ATCC31517
Protocol: as §4

S. aureus (ATCC 29213) = assay: Antibacterial activity (MIC); assay type: cell-based; conditions: Staphylococcus aureus, ATCC29213
Protocol: as §4

[6] = molecular target: T3, Co(II)-substituted E. coli PDF (Escherichia coli, UniProt P0A6K3); assay: PDF assay coupled to formate dehydrogenase; assay type: biochemical
T3 construct: made in house

[7] = Stability of inhibitors in rat plasma; assay type: in vitro ADME; conditions: 37° C., LC-MS
Protocol: FIG. 7 Comparison of the in vitro stability of PDF inhibitors 6 (cyclic) and 9 (acyclic) in rat plasma.
Stability of Inhibitors Inhibitors 6E and comparative compound 9 were chosen to test for the effect of cyclization on inhibitor stability. They both have an L-lysine as the P2′ residue and are expected to be sensitive to proteolytic degradation by trypsin-like enzymes. Both inhibitors were incubated in rat plasma at 37° C. and aliquots were withdrawn at various times and analyzed by LC-MS. […] Our attempts to identify the degradation products by mass spectrometry failed.

[8] = test system: human matrix metalloproteases; assay: Inhibition of human matrix metalloproteases, overall statement; assay type: biochemical; conditions: MMP-1, MMP2, MMP-3, MMP-9; 1.0 and 10 μM
Protocol: as §5, with “inhibitor. […] The acyclic inhibitors are flexible and can adopt different conformations to fit the active sites of both PDF and MMP's.” for “inhibitor.”

Sequence of MMP-3 (P08254 100-477): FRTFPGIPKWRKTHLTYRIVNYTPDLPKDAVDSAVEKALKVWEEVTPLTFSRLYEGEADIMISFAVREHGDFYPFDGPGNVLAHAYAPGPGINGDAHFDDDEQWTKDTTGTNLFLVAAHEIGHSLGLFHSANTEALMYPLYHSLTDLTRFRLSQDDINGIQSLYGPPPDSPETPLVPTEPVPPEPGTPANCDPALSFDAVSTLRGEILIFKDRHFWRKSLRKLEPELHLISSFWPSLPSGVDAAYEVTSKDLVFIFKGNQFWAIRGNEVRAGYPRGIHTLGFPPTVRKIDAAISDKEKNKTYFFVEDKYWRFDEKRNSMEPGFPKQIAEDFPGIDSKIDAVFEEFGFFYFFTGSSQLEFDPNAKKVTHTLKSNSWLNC
Sequence of MMP-9 (P14780 94-707): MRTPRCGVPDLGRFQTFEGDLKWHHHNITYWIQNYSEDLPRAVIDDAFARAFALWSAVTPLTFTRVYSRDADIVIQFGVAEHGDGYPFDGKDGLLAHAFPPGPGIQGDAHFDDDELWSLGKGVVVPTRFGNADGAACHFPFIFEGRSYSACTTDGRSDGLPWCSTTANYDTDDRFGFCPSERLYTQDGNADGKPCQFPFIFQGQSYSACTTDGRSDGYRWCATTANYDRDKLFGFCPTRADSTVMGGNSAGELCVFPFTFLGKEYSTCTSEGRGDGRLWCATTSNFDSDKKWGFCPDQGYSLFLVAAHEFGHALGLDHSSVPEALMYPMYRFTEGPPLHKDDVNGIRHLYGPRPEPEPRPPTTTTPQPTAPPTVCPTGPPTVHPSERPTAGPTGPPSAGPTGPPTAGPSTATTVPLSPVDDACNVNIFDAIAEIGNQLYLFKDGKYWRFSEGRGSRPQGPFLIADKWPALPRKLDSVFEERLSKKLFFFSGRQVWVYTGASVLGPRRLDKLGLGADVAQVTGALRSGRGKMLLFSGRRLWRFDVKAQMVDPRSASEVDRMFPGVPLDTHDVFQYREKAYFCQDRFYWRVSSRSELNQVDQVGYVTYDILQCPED
T3 sequence (P0A6K3 whole entry): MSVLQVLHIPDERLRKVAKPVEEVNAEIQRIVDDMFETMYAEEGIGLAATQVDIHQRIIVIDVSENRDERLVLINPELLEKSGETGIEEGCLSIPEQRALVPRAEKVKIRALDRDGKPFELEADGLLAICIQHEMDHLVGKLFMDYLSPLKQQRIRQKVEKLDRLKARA

Row | SMILES | MIC (B. subtilis) | MIC (E. coli) | remaining activity at 1 µM (MMP-9) | remaining activity at 10 µM (MMP-9) | remaining activity at 1 µM (MMP2) | remaining activity at 10 µM (MMP2) | remaining activity at 1 µM (MMP-1) | remaining activity at 10 µM (MMP-1) | remaining activity at 1 µM (MMP-3) | remaining activity at 10 µM (MMP-3) | MIC [1] | MIC [2] | MIC [3] | MIC (E. faecalis (ATCC 29212)) | MIC [4] | MIC [5] | MIC (S. aureus (ATCC 29213)) | Ki [6] | degradation (loss) in rat plasma after 5 h [7] | inhibition of the MMPs (in words) [8]
1 | CC(C)(C)[C@@H]1NC(=O)[C@@H](CN(O)C=O)CCCCCCCCCCCCCCNC1=O [Compound 5E] | ~16 µg/mL (≈ 36.4 µM) | > 24 µg/mL | 96% | 94% | 100% | 100% | 93% | 92% | 97% | 96% | 8 µg/mL (≈ 18.2 µM) | 8 µg/mL (≈ 18.2 µM) | < 0.031 µg/mL | > 32 µg/mL | 4 µg/mL (≈ 9.1 µM) | > 32 µg/mL | > 32 µg/mL | 25 ± 6 nM |  | 
2 | NCCCC[C@@H]1NC(=O)[C@@H](CN(O)C=O)CCCCCCCCCNC1=O [Compound 6E] | ~8 µg/mL (≈ 20.8 µM) | 4 to 8 µg/mL (≈ 10.4 to 20.8 µM) |  |  |  |  |  |  |  |  |  |  |  |  |  |  |  | 3 ± 1.3 nM | no detectable degradation | 
3 | NCCCC[C@@H]1NC(=O)[C@@H](CN(O)C=O)CCCCCCCCCCCCCCNC1=O [Compound 7E] | > 32 µg/mL | > 32 µg/mL | 96% | 95% | 94% | 85% | 99% | 93% | 100% | 94% | > 32 µg/mL | > 32 µg/mL | 1 µg/mL (≈ 2.2 µM) | 32 µg/mL (≈ 70.4 µM) | > 32 µg/mL | 32 µg/mL (≈ 70.4 µM) | 32 µg/mL (≈ 70.4 µM) | 36 ± 9 nM |  | 
4 | CC(=O)NCCCC[C@@H]1NC(=O)[C@@H](CN(O)C=O)CCCCCCCCCNC1=O [Compound 8E] |  |  | 92% | 92% | 83% | 80% | 97% | 87% | 100% | 92% |  |  |  |  |  |  |  | 12 ± 4 nM |  | 
5 | CCCCCCNC(=O)[C@H](CCCCN)NC(=O)[C@H](CCCCC)CN(O)C=O [Compound 9C, reference compound] |  |  | 39% | 6% | 27% | 2% | 50% | 0% | 19% | 1% |  |  |  |  |  |  |  |  | approximately 25% | substantial inhibition of all of the MMP's
6 | CCCC[C@H](CN(O)C=O)C(=O)N[C@@H](CCCCN)C(=O)Nc1ccccc1 [Compound 10C, reference compound] |  |  | 46% | 11% | 66% | 45% | 50% | 3% | 32% | 27% |  |  |  |  |  |  |  | 18 ± 1 nM |  | substantial inhibition of all of the MMP's
